Assay results from US20250324971A1, “HERBICIDAL DERIVATIVES” (SYNGENTA CROP PROTECTION AG, priority 2022, published 2025).

Experiments:
Format in all cases: in vivo
[1] = tested on: Zea mays (ZEAMX); experiment: Post-Emergence Test (herbicidal, glasshouse pots); details: evaluated after 13 days
Experimental: (§1) Seeds of a variety of test species are sown in standard soil in pots (Setaria faberi (SETFA), Ipomoea hederacea (IPOHE), Echinochloa crus-galli (ECHCG), (Amaranthus retoflexus (AMARE), Zea mays (ZEAMX), and Amaranthus palmeri (AMAPA)). After 8 days cultivation under controlled conditions in a glasshouse (at 24° C./16° C., day/night; 14 hours light; 65% humidity), the plants arm sprayed with an aqueous spray solution derived from the formulation of the technical active ingredient in acetone/water (50:50) solution containing 0.5% Tween 20 (polyoxyethylene sorbitan monolaurate, CAS RN 9005-84-5). Rate of application is shown in g/ha in the tables below. The test plants are then grown in a glasshouse under controlled conditions in a glasshouse (at 24° C./16° C., day/night; 14 hours light; 65% humidity) and watered twice daily. After 13 days the test is evaluated for the percentage damage caused to the plant. The biological activities are shown in the following table on a five-point scale (5=81-100%; 4=61-80%; 3=41-60%; 2=21-40%; 1=0-20%; -=not tested).

[2] = tested on: Echinochloa crus-galli (ECHCG); experiment: Post-Emergence Test (herbicidal, glasshouse pots); details: evaluated after 13 days
Experimental: as §1

[3] = tested on: Amaranthus palmeri (AMAPA); experiment: Post-Emergence Test (herbicidal, glasshouse pots); details: evaluated after 13 days
Experimental: as §1

[4] = tested on: Ipomoea hederacea (IPOHE); experiment: Post-Emergence Test (herbicidal, glasshouse pots); details: evaluated after 13 days
Experimental: as §1

[5] = tested on: Amaranthus retoflexus (AMARE); experiment: Post-Emergence Test (herbicidal, glasshouse pots); details: evaluated after 13 days
Experimental: as §1

[6] = tested on: Amaranthus palmeri (AMAPA); experiment: Pre-Emergence Test (herbicidal, glasshouse pots); details: rate 1000 g/ha, evaluated after 13 days, five-point scale
[7] = tested on: Amaranthus retoflexus (AMARE); experiment: Pre-Emergence Test (herbicidal, glasshouse pots); details: rate 1000 g/ha, evaluated after 13 days, five-point scale
[8] = tested on: Echinochloa crus-galli (ECHCG); experiment: Pre-Emergence Test (herbicidal, glasshouse pots); details: rate 1000 g/ha, evaluated after 13 days, five-point scale
[9] = tested on: Zea mays (ZEAMX); experiment: Pre-Emergence Test (herbicidal, glasshouse pots); details: rate 1000 g/ha, evaluated after 13 days, five-point scale
[10] = tested on: Ipomoea hederacea (IPOHE); experiment: Pre-Emergence Test (herbicidal, glasshouse pots); details: rate 1000 g/ha, evaluated after 13 days, five-point scale

Row | SMILES | Post-Emergence Test ZEAMX percentage damage (five-point scale) ([1]; rate 1000 g/ha) | Post-Emergence Test ECHCG percentage damage (five-point scale) ([2]; rate 1000 g/ha) | Post-Emergence Test AMAPA percentage damage (five-point scale) ([3]; rate 1000 g/ha) | Post-Emergence Test IPHOE percentage damage (five-point scale) ([4]; rate 1000 g/ha) | Post-Emergence Test AMARE percentage damage (five-point scale) ([5]; rate 1000 g/ha) | percentage damage caused to the plant, AMAPA [6] | percentage damage caused to the plant, AMARE [7] | percentage damage caused to the plant, ECHCG [8] | percentage damage caused to the plant, ZEAMX [9] | percentage damage caused to the plant, IPHOE [10] | Post-Emergence Test ZEAMX percentage damage (five-point scale) ([1]; rate 250 g/ha) | Post-Emergence Test ECHCG percentage damage (five-point scale) ([2]; rate 250 g/ha) | Post-Emergence Test AMAPA percentage damage (five-point scale) ([3]; rate 250 g/ha) | Post-Emergence Test IPHOE percentage damage (five-point scale) ([4]; rate 250 g/ha) | Post-Emergence Test AMARE percentage damage (five-point scale) ([5]; rate 250 g/ha)
1 | CCn1c(Oc2cc(Cl)cc(OC)c2)cc(=O)c(C(=O)O)c1-c1ccc(Cl)c(Cl)c1 [Compound 25, 6-(3-chloro-5-methoxy-phenoxy)-2-(3,4-dichlorophenyl)-1-ethyl-4-oxo-pyridine-3-carboxylic acid] | 0 | 0 | 1 (1=0-20%) | 1 (1=0-20%) | 1 (1=0-20%) |  |  |  |  |  |  |  |  |  | 
2 | CCn1c(Oc2ccc(Cl)c(Cl)c2)cc(=O)c(C(=O)O)c1-c1ccc(Cl)c(Cl)c1 [Compound 18, 6-(3,4-dichlorophenoxy)-2-(3,4-dichlorophenyl)-1-ethyl-4-oxo-pyridine-3-carboxylic acid] | 1 (1=0-20%) | 0 | 1 (1=0-20%) | 1 (1=0-20%) | 1 (1=0-20%) | 0 | 0 | 0 | 0 | 0 |  |  |  |  | 
3 | CCn1c(Nc2cccc(C)n2)cc(=O)c(C(=O)O)c1-c1ccc(Cl)c(Cl)c1 [Compound 32, 2-(3,4-dichlorophenyl)-1-ethyl-6-[(6-methyl-2-pyridyl)amino]-4-oxo-pyridine-3-carboxylic acid] | 1 (1=0-20%) | 2 (2=21-40%) | 3 (3=41-60%) | 1 (1=0-20%) | 4 (4=61-80%) |  |  |  |  |  |  |  |  |  | 
4 | CCn1c(OC)cc(=O)c(C(=O)O)c1-c1ccc(Cl)c(Cl)c1 [Compound 5, 2-(3,4-dichlorophenyl)-1-ethyl-6-methoxy-4-oxo-pyridine-3-carboxylic acid] |  |  |  |  |  |  |  |  |  |  | 2 (2=21-40%) | 3 (3=41-60%) | 0 | 3 (3=41-60%) | 0
5 | CCn1c(Oc2cc(Cl)cc(Cl)c2)cc(=O)c(C(=O)O)c1-c1ccc(Cl)c(Cl)c1 [Compound 16, 6-(3,5-dichlorophenoxy)-2-(3,4-dichlorophenyl)-1-ethyl-4-oxo-pyridine-3-carboxylic acid] | 1 (1=0-20%) | 1 (1=0-20%) | 1 (1=0-20%) | 2 (2=21-40%) | 2 (2=21-40%) |  |  |  |  |  |  |  |  |  | 
6 | CCn1c(Oc2cc(F)cc(F)c2)cc(=O)c(C(=O)O)c1-c1ccc(Cl)c(Cl)c1 [Compound 15, 2-(3,4-dichlorophenyl)-6-(3,5-difluorophenoxy)-1-ethyl-4-oxo-pyridine-3-carboxylic acid] | 3 (3=41-60%) | 3 (3=41-60%) | 3 (3=41-60%) | 3 (3=41-60%) | 4 (4=61-80%) | 1 (1=0-20%) | 1 (1=0-20%) | 4 (4=61-80%) | 1 (1=0-20%) | 3 (3=41-60%) |  |  |  |  | 
7 | CCn1c(Oc2cccc(F)c2)cc(=O)c(C(=O)O)c1-c1ccc(Cl)c(Cl)c1 [Compound 12, 2-(3,4-dichlorophenyl)-1-ethyl-6-(3-fluorophenoxy)-4-oxo-pyridine-3-carboxylic acid] | 4 (4=61-80%) | 4 (4=61-80%) | 5 (5=81-100%) | 5 (5=81-100%) | 5 (5=81-100%) | 4 (4=61-80%) | 4 (4=61-80%) | 5 (5=81-100%) | 4 (4=61-80%) | 5 (5=81-100%) |  |  |  |  | 
8 | CCn1c(Oc2ccc(Cl)cc2OC)cc(=O)c(C(=O)O)c1-c1ccc(Cl)c(Cl)c1 [Compound 26, 6-(4-chloro-2-methoxy-phenoxy)-2-(3,4-dichlorophenyl)-1-ethyl-4-oxo-pyridine-3-carboxylic acid] | 1 (1=0-20%) | 0 | 1 (1=0-20%) | 1 (1=0-20%) | 1 (1=0-20%) | 1 (1=0-20%) | 1 (1=0-20%) | 0 | 0 | 0 |  |  |  |  | 
9 | CCn1c(Nc2ccc(C3CC3)cc2)cc(=O)c(C(=O)O)c1-c1ccc(Cl)c(Cl)c1 [Compound 22] |  |  |  |  |  | 0 | 1 (1=0-20%) | 0 | 0 | 0 |  |  |  |  | 
10 | CCn1c(Nc2ccc(Cl)cc2F)cc(=O)c(C(=O)O)c1-c1ccc(Cl)c(Cl)c1 [Compound 29, 6-(4-chloro-2-fluoro-anilino)-2-(3,4-dichlorophenyl)-1-ethyl-4-oxo-pyridine-3-carboxylic acid] | 0 | 0 | 2 (2=21-40%) | 3 (3=41-60%) | 2 (2=21-40%) |  |  |  |  |  |  |  |  |  | 
11 | CCn1c(Nc2ccccc2F)cc(=O)c(C(=O)O)c1-c1ccc(Cl)c(Cl)c1 [Compound 1, 2-(3,4-dichlorophenyl)-1-ethyl-6-(2-fluoroanilino)-4-oxo-pyridine-3-carboxylic acid] |  |  |  |  |  |  |  |  |  |  | 0 | 0 | 1 (1=0-20%) | 2 (2=21-40%) | 1 (1=0-20%)
12 | CCn1c(Nc2cccc(Cl)n2)cc(=O)c(C(=O)O)c1-c1ccc(Cl)c(Cl)c1 [Compound 30, 6-[(6-chloro-2-pyridyl)amino]-2-(3,4-dichlorophenyl)-1-ethyl-4-oxo-pyridine-3-carboxylic acid] | 1 (1=0-20%) | 0 | 2 (2=21-40%) | 2 (2=21-40%) | 2 (2=21-40%) |  |  |  |  |  |  |  |  |  | 
13 | CCn1c(Oc2ccc(Cl)cc2Cl)cc(=O)c(C(=O)O)c1-c1ccc(Cl)c(Cl)c1 [Compound 24, 6-(2,4-dichlorophenoxy)-2-(3,4-dichlorophenyl)-1-ethyl-4-oxo-pyridine-3-carboxylic acid] | 1 (1=0-20%) | 0 | 1 (1=0-20%) | 1 (1=0-20%) | 1 (1=0-20%) |  |  |  |  |  |  |  |  |  | 
